# Data as given in patent publication US6590140B1, “Metal-regulated transporters and uses therefor” (Trustees of Dartmouth College, priority 1996, dated 2003).
# System: zrt1zrt2 double mutant strain ZHY3
# Assay: 65Zn uptake assay in zrt1zrt2 double mutant
# Type: cell-based, Saccharomyces cerevisiae
# Conditions: ZHY3 without ZIP gene, 5 minute time course using 10 mM Zn
# Procedure: Zinc uptake assays were performed as described previously for iron uptake (Eide et al. (1992) J. Biol. Chem. 267:20774-20781) except that ^65ZnCl2 (Amersham) and LZM-EDTA were substituted for ^59FeCI3 and LIM-EDTA, respectively. Cells were incubated for 5 minutes in LZM-EDTA plus the indicated concentration of ^65Zn, collected on glass fiber filters (Schleicher and Schuell), washed with 10 ml ice-cold SSW (1 mM EDTA, 20 mM trisodium citrate, 1 mM KH2PO4, 1 mM CaCl2, 5 mM MgSO4, 1 mM NaCl pH 4.2), and cell-associated radioactivity was measured by liquid scintillation counting. […] Michaelis-Menten kinetic values were determined using […] software (Intellikinetics, Princeton, N.J.). […] The statistical significance of the differences of values relative to controls was determined with one-way analysis of variance (ANOVA) followed by a Dunnett multiple comparison test. β-galactosidase activity was assayed in cells harvested at an OD600 of 0.5-2.0 as described by Guarente (Guarente, L. (1983) Methods Enzymol. 101:181-191) and activity is expressed as the change in absorbance at 420 nm×1000 divided by (min×ml of culture used×OD600 of the culture). Cell-associated zinc was measured in parallel cultures supplemented with tracer amounts of ^65Zn (10 μM) and nonradioactive zinc to the indicated final concentration. […]
smiles,measurement,value
[Zn+2] [zinc],zinc uptake,essentially no detectable zinc uptake
